Converted amounts (≈) assume the structure as drawn.
Tests used:
[1] = tested on: gram-positive and gram-negative bacteria; experiment: MIC (minimum growth inhibition concentration), 2-fold serial agar plate dilution on Mueller Hinton II Agar, with concomitant alkyl gallate and salt; settings: n-heptyl, n-hexyl, n-pentyl, n-butyl, isobutyl or n-propyl gallate at a concentration equal to or less than MIC
[2] = tested on: influenza virus; experiment: Influenza virucidal activity of n-dodecyl gallate with n-hexyl gallate or n-butyl gallate (FIG. 3); type: cell-based
From the text: FIG. 3 is a graph showing reinforcement of the influenza virucidal activity of n-dodecyl gallate by n-hexyl gallate and n-butyl gallate. The abscissa axis indicates the concentrations of n-dodecyl gallate.
The open circle in FIG. 3 indicates an influenza virucidal effect of dodecyl gallate alone.

[3] = tested on: Pseudomonas aeruginosa POA1; experiment: Antimicrobial action (MIC) of lauryl gallate with isoamyl gallate or propyl gallate in 3% NaCl; type: cell-based; settings: for MIC: Pseudomonas aeruginosa, P. aoruginosa PAO1, MHA (3% NaCl)
[4] = tested on: clinical isolate MRSA; experiment: Oxacillin MIC against MRSA with concomitant octyl gallate and short-chain alkyl gallate (β-lactam sensitivity, ILSMR effect); type: cell-based, Staphylococcus aureus; settings: Staphylococcus aureus, MRSA, 24 h, Isoamyl G 25 μg/mL; Octyl G 1.5625 μg/mL
[5] = tested on: herpes virus (HSV-1); experiment: Virucidal activity against HSV-1 (Tables 14, 15, FIG. 5); type: cell-based
[6] = tested on: MRSA COL strain; experiment: Time required for killing bacteria, octyl gallate and propyl gallate (FIG. 1); type: cell-based, Staphylococcus aureus
From the text: FIG. 1 is a graph showing shortening of the time required for killing bacteria by the concomitant use of octyl gallate and propyl gallate against MRSA COL strain.

[7] = tested on: Candida albicans ATCC 10231; experiment: Time required for killing mold, octyl gallate and propyl gallate (FIG. 2); type: cell-based; settings: Candida albicans ATCC 10231, FIG. 2
From the text: FIG. 2 is a graph showing shortening of the time required for killing mold by the concomitant use of octyl gallate and propyl gallate against Candida albicans ATCC 10231.

[8] = tested on: influenza virus B/T/1/05; experiment: Time course of virucidal activity at 37° C., infectivity by plaque assay in MDCK cells (FIGS. 6 to 12); type: cell-based; settings: influenza B/T/1/05, FIGS. 6 and 8
Description: The experiments in FIGS. 7 to 12 were carried out at 37° C. The infectivity of viruses was determined using MDCK cells by the plaque assay method.
This virucidal activity of octyl gallate was reinforced by propyl gallate also against influenza virus A/Aichi (H3N2) in the same manner as above.

[9] = tested on: influenza virus A/Aichi (H3N2); experiment: Virucidal activity against influenza virus A/Aichi (H3N2) (Table 16); settings: Table 16, NaCitrate 0.90%

CCCCCCCCCCCCOC(=O)c1cc(O)c(O)c(O)c1 [dodecyl gallate, n-dodecyl gallate]
change of MIC value by addition of shorter-chain alkyl gallate [1]: decreased | virucidal effect of dodecyl gallate ([2]; addition of butyl gallate at a concentration without virucidal effect): reinforced markedly | dodecyl gallate concentration at which no survivor was observed ([2]; coexistence of 100 μg/ml of hexyl gallate): 20 µg/mL | MIC ([3]; PAO1, 24 h, concomitant none, 24 h): 15.6 mg/L (≈ 46.2 µM) | MIC ([3]; PAO1, 48 h, concomitant none, 48 h): 31.2 mg/L (≈ 92.3 µM) | MIC ([3]; PAO1, 48 h, isoamyl gallate 50 μg/mL, 48 h): 3.91 mg/L (≈ 11.5 µM) | MIC ([3]; PAO1, 48 h, isoamyl gallate 75 μg/mL, 48 h): 0.977 mg/L (≈ 2.89 µM) | MIC ([3]; PAO1, 48 h, propyl gallate 75 μg/mL, 48 h): 0.488 mg/L (≈ 1.44 µM) | antimicrobial action of lauryl gallate ([3]; isoamyl gallate or propyl gallate in the presence of 3% NaCl (Table 6)): reinforced

CCCCCCCCCCOC(=O)c1cc(O)c(O)c(O)c1 [n-decyl gallate]
change of MIC value by addition of shorter-chain alkyl gallate [1]: decreased

CCCCCCCCCOC(=O)c1cc(O)c(O)c(O)c1 [n-nonyl gallate]
change of MIC value by addition of shorter-chain alkyl gallate [1]: decreased

CCCCCCCCCCCOC(=O)c1cc(O)c(O)c(O)c1 [n-undecyl gallate]
change of MIC value by addition of shorter-chain alkyl gallate [1]: decreased

Cc1onc(-c2ccccc2)c1C(=O)N[C@@H]1C(=O)N2[C@@H]1SC(C)(C)[C@@H]2C(=O)O [oxacillin, reference compound]
MIC [4]: 0.125 mg/L

CCCOC(=O)c1cc(O)c(O)c(O)c1 [propyl gallate]
No of plaques ([5]; Table 14, octyl gallate 0, propyl gallate 300 mg/L, J1816 90 mg/L, Na3citrate 0.90%): 0 | No of plaques ([5]; Table 14, propyl gallate 100 mg/L, J1816 30 mg/L, Na3citrate 0.90%): 0 | No of plaques ([5]; Table 14, propyl gallate 200 mg/L, J1816 60 mg/L, Na3citrate 0.90%): 0 | No of plaques ([5]; Table 14, propyl gallate 300 mg/L, J1816 90 mg/L, Na3citrate 0.90%): 0 | No of plaques ([5]; Table 14, propyl gallate 400 mg/L, J1816 120 mg/L, Na3citrate 0.90%): 0 | No of plaques ([5]; Table 14, propyl gallate 500 mg/L, J1816 150 mg/L, Na3citrate 0.90%): 0 | No of plaques ([5]; Table 15, octyl gallate 0, propyl gallate 300 mg/L, J1816 0, NaCitrate 0.90%): 137 | No of plaques ([5]; Table 15, propyl gallate 100 mg/L, J1816 0, NaCitrate 0.90%): 192 | No of plaques ([5]; Table 15, propyl gallate 200 mg/L, J1816 0, NaCitrate 0.90%): 139 | No of plaques ([5]; Table 15, propyl gallate 300 mg/L, J1816 0, NaCitrate 0.90%): 162 | No of plaques ([5]; Table 15, propyl gallate 400 mg/L, J1816 0, NaCitrate 0.90%): 102 | No of plaques ([5]; Table 15, propyl gallate 500 mg/L, J1816 0, NaCitrate 0.90%): 130 | bactericidal activity alone [6]: low | fungicidal activity alone [7]: low | virucidal activity alone [8]: low | No of plaques ([9]; octyl gallate 0, propyl gallate 300 mg/L, J1816 90 mg/L): 52 | No of plaques ([9]; propyl gallate 100 mg/L, J1816 30 mg/L): 84 | No of plaques ([9]; propyl gallate 200 mg/L, J1816 60 mg/L): 87 | No of plaques ([9]; propyl gallate 300 mg/L, J1816 90 mg/L): 53 | No of plaques ([9]; propyl gallate 400 mg/L, J1816 120 mg/L): 47 | No of plaques ([9]; propyl gallate 500 mg/L, J1816 150 mg/L): 42

From patent US20100056627A1, “PHARMACEUTICAL COMPOSITIONS OF ALKYL GALLATES” (priority 2006, published 2010)
